Experiments:
MDA-MB-231 (HER2−) cells = assay: Targeted toxicity, MTT assay, separate dishes; type: cell-based; details: HerDox/Dox 0.5 uM Dox; HerPBK10 0.1 uM; day 3
Method: (§1) FIG. 7 illustrates targeted toxicity. Each cell line was exposed to HerDox (0.5 uM Dox cone), Dox alone (0.5 uM), or HerPBK10 alone for 4 h at 37° C. in complete (i.e. serum-containing) media, followed by aspiration to remove free conjugate, and addition of fresh medium while cells are grown continuously. Cell titer was determined by metabolic (i.e. MTT) assay. FIG. 7 upper panel illustrates the effect of HerDox on MDA-MB-231 (HER2−) and MDA-MB-435 (HER2+) cell survival. Relative surviving cell numbers are represented as a % of corresponding untreated cells. FIG. 7 lower panel illustrates comparison of HerDox, Dox alone, or HerPBK10 alone on HER2− and HER2+ cell survival. Relative survival (as % of untreated cells) is shown for Day 3 of treatment.
(§2) The inventors compared the effect of HerDox or Dox alone at equivalent dosages (0.5 uM with respect to Dox concentration) on HER2+ and HER2− breast cancer cells in separate dishes. By three days, HerDox reduced HER2+ cell numbers by over 75% whereas HER2− cell survival was unaffected (FIG. 7). […] These findings emphasize the importance of targeting by showing that the untargeted drug affects nontarget (i.e. HER2−) cells. Importantly, the protein carrier, HerPBK10, alone at the equivalent concentration of protein in HerDox (0.1 uM) had no effect on either cell line (FIG. 7), including a lack of proliferation induction. To test receptor targeting, the inventors used free heregulin ligand (Her or eHRG) as a competitive inhibitor. […] As a final in vitro challenge, the inventors tested whether HerDox induces toxicity specifically to HER2+ cells in a mixed culture of HER2+ and HER2− breast cancer cells. To do this, the inventors produced a HER2− cell line tagged with green fluorescent protein (GFP) for cell identification in the mixed culture (FIG. 9 (A)). […] Altogether, these findings indicate that HerDox has the capacity to preferentially target toxicity to HER2+ cells. […] Moreover, the preferential cell killing of HER2+ cells in a mixed culture of HER2+ and HER2− cells implies that after death and lysis of the target cells, the Dox released into those cells is incapable of continuing to induce toxicity to HER2− cells. To further confirm the stability of HerDox in cell culture, HerDox was recovered from culture media in separate experiments at indicated time points and electrophoresed on an agarose gel, which was then illuminated by UV to detect Dox and stained with Coomassie blue to detect HerPBK10 protein (FIG. 9 (C)). […] Co-migration of HerPBK10 bands further verified that the conjugates remained intact in the cell media.

MDA-MB-435 (HER2+) cells = assay: Targeted toxicity, MTT assay, separate dishes; type: cell-based; details: Dox 0.5 uM; HerPBK10 0.1 uM; day 3
Method: as §1, §2

HER2+ tumors = assay: HerDox vs Dox biodistribution by Dox fluorescence imaging; type: in vivo, mice
Method: FIGS. 11 (A)-(B) illustrates preferential targeting of HerDox to HER2+ tumors. Tumor-bearing mice were injected with 0.75 nmoles of HerDox or Dox via the tail vein and imaged with a custom small animal imager. FIG. 11 (A) depicts imaging of live mice after IV delivery of HerDox. Tumors are indicated by arrows. FIG. 11 (B) depicts imaging of tumors and tissues harvested at 3 h after injection of HerDox or Dox. Fluorescence signal from Dox is pseudo-colored according to the color bar, with a shift toward 100 indicating high fluorescence intensity. FIG. 11 (B) illustrates a comparison of the targeted delivery of Dox to HER2+ breast cancer cells with minimal delivery to other organs and tissues using a delivery system in accordance with an embodiment of the present invention (left panel), as compared with Dox administered alone (right panel).
Dox emits a red fluorescence upon appropriate wavelength excitation, which can be used to detect biodistribution after systemic delivery of HerDox. Mice bearing 4-week old) tumors (˜700-800 mm^3) received a single tail vein injection of Dox or HerDox ([…] with respect to Dox cone) and images of live mice captured in real time, or of organs/tissues harvested at ˜3 h postinjection were acquired using a customized macro-illumination and detection system. Fluorescence was evident throughout the body at 10 min after HerDox injection, then quickly accumulated at the tumors by 20 min and remained detectable in the tumors up to 100 min after injection (FIG. 11 (A)).

[1] = tested on: bilateral flank tumors (HER2+); assay: In vivo tumor toxicity, tumor growth; parameters: species or system mice; details: daily tail vein injections, 0.004 mg/kg Dox conc, 7 consecutive days
Method: (§3) FIGS. 12 (A)-(D) illustrates comparison of HerDox and Dox on (A) tumor growth, (B) animal weight, (C) cardiac tissue, and (D) cardiac function.
To assess in vivo tumor toxicity, mice bearing 3-4 week bilateral flank tumors began receiving daily tail vein injections of Dox or HerDox (0.004 mg/kg with respect to Dox conc), HerPBK10 alone (at equivalent protein concentration to HerDox) or saline for 7 consecutive days.

hearts of mice = assay: Cardiac tissue histology and echocardiography; type: in vivo
Text: as §3
At 25 days following injections, tumors and organs were harvested and processed for histochemistry. It is established that Dox can induce acute and long-term cardiotoxicity, therefore, the inventors examined the hearts of mice treated with HerDox or Dox.

MDA-MB-435 cells [2] = assay: Intracellular translocation in live cells, Dox fluorescence microscopy; type: cell-based
Method: FIGS. 14 (A)-(B) illustrates comparison of HerDox and Dox intracellular translocation and targets in live cells. MDA-MB-435 cells were incubated with HerDox or free Dox (0.5 uM) at 37° C. Live (unfixed) cells were imaged by brightfield and fluorescence as depicted in […], or DIC and confocal fluorescence, as depicted in FIG. 14 (B), microscopy. Dox is indicated by red or magenta pseudocolor.
To understand the mechanism of HerDox mediated tumor cell death, the inventors examined HER2+ cells microscopically after treatment with HerDox, using Dox fluorescence to detect intracellular location. […] These dynamics, in addition to earlier targeting results, support a receptor-mediated HerDox entry mechanism. Even the intranuclear pattern of Dox when delivered by HerPBK10 differs from free Dox.

MDA-MB-435 cells [3] = assay: HerPBK10 binding to cells in human serum, ELISA; type: cell-based; details: 1.2 ug/well, cells exposed 2 hours to human sera
Method: FIG. 16 illustrates HerPBK10 binding to MDA-MB-435 cells in human serum from HER2+ or HER2− breast cancer patients. Cells were treated with HerPBK10 (1.2 ug/well) in media containing human serum from each of 5 HER2+ breast cancer patients or age matched HER2− controls, both obtained pre-chemotherapy treatment. Cells were processed for ELISA using an antibody directed at HerPBK10. Control (C) wells receiving HerPBK10 in media containing bovine serum without or with 100× molar excess competitive ligand inhibitor (+ Her) are indicated by open bars. Patient sera were provided by the WCRI tissue bank at Cedars-Sinai Medical Center. N=3 wells per treatment.
To determine whether HerPBK10 can compete with circulating ligand that may be present in serum, the inventors tested HerPBK10 binding to HER2+ breast cancer cells in human serum obtained from HER2+ patients. The Women's Cancer Research Institute at Cedars-Sinai occasionally acquires limited quantities of patient serum, of which sera from HER2+ patients comprises an even smaller minority. […] Here, the inventors replaced the bovine serum in the routine culturing media with the human serum obtained from the acquired patient samples to assess whether the human serum, especially from HER2+ patients, inhibits cell binding. […]

[4] = in the presence of serum; cited from earlier work
[5] = harvested at 3 h after injection

Molecule | effect on HER2− cell survival (MDA-MB-231 (HER2−) cells) | effect on HER2+ cell numbers (MDA-MB-435 (HER2+) cells) | Dox fluorescence in kidneys (HER2+ tumors; [5]) | Dox fluorescence in liver (HER2+ tumors; [5]) | Dox fluorescence in tumors (HER2+ tumors; [5]) | Dox fluorescence in lungs and skeletal muscle (HER2+ tumors; harvested ~3 h after injection, equivalent dose of Dox) | tumor growth [1] | gross appearance of hearts (hearts of mice; 25 days following injections) | myocardium morphology (histochemistry) (hearts of mice; 25 days following injections) | echocardiogram: stroke volume, cardiac output, left ventricular internal dimension and volume (hearts of mice; treated mice) | intracellular location of Dox fluorescence (MDA-MB-435 cells [2]; 0.5 uM, 0 min of uptake) | intranuclear pattern of Dox (MDA-MB-435 cells [2]; live cells, confocal) | cell binding in serum from HER2+ patients, HER2− patients, or bovine serum (MDA-MB-435 cells [3]) | receptor targeting under physiological conditions [4]
COc1cccc2c1C(=O)c1c(O)c3c(c(O)c1C2=O)C[C@@](O)(C(=O)CO)C[C@@H]3O[C@H]1C[C@H](N)[C@H](O)[C@H](C)O1 [Dox, doxorubicin, reference compound] | reduced both HER2+ and HER2− cells by the same order of magnitude | reduced both HER2+ and HER2− cells by the same order of magnitude | detectable fluorescence | detectable fluorescence | detectable fluorescence | Lower levels of fluorescence | slows tumor growth | slightly enlarged and dilated | focal degeneration, myofibrillar loss, increased cytosoplasmic vacuolization, and nuclear condensation or dissolution | modest to marked reductions | inside the cell at the nuclear periphery | accumulates in the cell nucleus |  | 
HerPBK10: receptor binding domain of heregulin fused to adenovirus penton base protein modified by a C-terminal decalysine | no effect | no effect |  |  |  |  | no effect |  |  |  |  |  | no significant differences | retains receptor targeting

From patent US10391180B2, “Self-assembling complex for targeting chemical agents to cells” (CEDARS-SINAI MEDICAL CENTER, priority 2007, dated 2019)
